Results reported in ChEMBL document CHEMBL4043183, “Elucidation of a carboxylate O-methyltransferase NcmP in nocamycin biosynthetic pathway” (2017).
In brackets after ≈: the same amount, converted by molar mass.

Key:
Type in all cases: functional
Bacillus thuringiensis = assay: Antibacterial activity against Bacillus thuringiensis CCTCC AB2013119 by broth microdilution method
Enterococcus faecalis = assay: Antibacterial activity against Enterococcus faecalis ATCC 29212 by broth microdilution method
Micrococcus luteus = assay: Antibacterial activity against Micrococcus luteus CCTCC AB2013120 by broth microdilution method
Staphylococcus aureus = assay: Antibacterial activity against Staphylococcus aureus ATCC 29213 by broth microdilution method
Bacillus subtilis = assay: Antibacterial activity against Bacillus subtilis CCTCC AB2013121 by broth microdilution method

SMILES | MIC (Bacillus thuringiensis) [µg/mL] | MIC (Enterococcus faecalis) [µg/mL] | MIC (Micrococcus luteus) [µg/mL] | MIC (Staphylococcus aureus) [µg/mL] | MIC (Bacillus subtilis) [µg/mL]
CC(/C=C/C(O)=C1/C(=O)CNC1=O)=C\[C@@H](C)[C@H]1O[C@@]23O[C@H](C(=O)C[C@]2(C)O[C@H](C)[C@@H]3C(=O)O)[C@@H]1C | 32 (≈ 65.4 µM) | > 128 | > 128 | > 128 | > 128
COC(=O)[C@H]1[C@@H](C)O[C@@]2(C)CC(=O)[C@H]3O[C@@]12O[C@H]([C@H](C)/C=C(C)/C=C/C(O)=C1/C(=O)CNC1=O)[C@H]3C | 0.5 (≈ 0.993 µM) | 4 (≈ 7.94 µM) | 16 (≈ 31.8 µM) | 32 (≈ 63.5 µM) | > 128
